# Results taken from ChEMBL document CHEMBL1201862, “PubChem BioAssay data set” (2004).
#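 Following 48 hours of exposure in 96-well plates, responses at five concentrations were used to interpolate endpoints linearly. GI50 = concentration required for 50% inhibition of growth.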 Activity calls are given as the source filed them. Cut-off read from the data, not from the text of the source: active = GI50 up to about 1.1 µM and inactive = higher.
# Columns and labels:
# Experiment in all cases: DTP human tumour cell line panel, 48 h
# 786-0 = system: 786-0
# A498 = system: A498
# A549 = system: A549
# ACHN = system: ACHN
# BT-549 = system: BT-549
# CAKI-1 = system: CAKI-1
# CCRF-CEM = system: CCRF-CEM
# COLO 205 = system: COLO 205
# DU-145 = system: DU-145
# EKVX = system: EKVX
# HCC 2998 = system: HCC 2998
# HCT-116 = system: HCT-116
# HCT-15 = system: HCT-15
# HL-60 = system: HL-60
# HOP-62 = system: HOP-62
# HOP-92 = system: HOP-92
# HT-29 = system: HT-29
# Hs-578T = system: Hs-578T
# IGROV-1 = system: IGROV-1
# K562 = system: K562
# KM12 = system: KM12
# LOX IMVI = system: LOX IMVI
# M14 = system: M14
# MCF7 = system: MCF7
# MDA-MB-231 = system: MDA-MB-231
# MDA-MB-435 = system: MDA-MB-435
# MOLT-4 = system: MOLT-4
# Malme-3M = system: Malme-3M
# NCI-H226 = system: NCI-H226
# NCI-H23 = system: NCI-H23
# NCI-H460 = system: NCI-H460
# NCI-H522 = system: NCI-H522
# NCI/ADR-RES = system: NCI/ADR-RES
# OVCAR-3 = system: OVCAR-3
# OVCAR-4 = system: OVCAR-4
# OVCAR-5 = system: OVCAR-5
# OVCAR-8 = system: OVCAR-8
# PC-3 = system: PC-3
# RPMI-8226 = system: RPMI-8226
# RXF 393 = system: RXF 393
# SF-268 = system: SF-268
# SF-295 = system: SF-295
# SF-539 = system: SF-539
# SK-MEL-28 = system: SK-MEL-28
# SK-MEL-2 = system: SK-MEL-2
# SK-MEL-5 = system: SK-MEL-5
# SK-OV-3 = system: SK-OV-3
# SN12C = system: SN12C
# SNB-19 = system: SNB-19
# SNB-75 = system: SNB-75
# SR = system: SR
# SW-620 = system: SW-620
# T47D = system: T47D
# TK-10 = system: TK-10
# U-251 = system: U-251
# UACC-257 = system: UACC-257
# UACC-62 = system: UACC-62
# UO-31 = system: UO-31
# MDA-N = system: MDA-N
smiles,measurement,setting,value
N=C(N)N/N=C/c1c(-c2ccc([N+](=O)[O-])cc2)nc2sccn12,GI50,786-0,1.47 µM (inactive)
same,GI50,A498,1.73 µM (inactive)
same,GI50,A549,1.78 µM (inactive)
same,GI50,ACHN,2.64 µM (inactive)
same,GI50,BT-549,1.82 µM (inactive)
same,GI50,CAKI-1,2.43 µM (inactive)
same,GI50,CCRF-CEM,0.673 µM (active)
same,GI50,COLO 205,0.676 µM (active)
same,GI50,DU-145,1.82 µM (inactive)
same,GI50,EKVX,1.8 µM (inactive)
same,GI50,HCC 2998,1.43 µM (inactive)
same,GI50,HCT-116,1.63 µM (inactive)
same,GI50,HCT-15,10.2 µM
same,GI50,HL-60,2.38 µM (inactive)
same,GI50,HOP-62,1.67 µM (inactive)
same,GI50,HOP-92,1.9 µM (inactive)
same,GI50,HT-29,1.53 µM (inactive)
same,GI50,Hs-578T,1.89 µM (inactive)
same,GI50,IGROV-1,8.63 µM (inactive)
same,GI50,K562,0.973 µM (active)
same,GI50,KM12,0.759 µM (active)
same,GI50,LOX IMVI,1.86 µM (inactive)
same,GI50,M14,1.91 µM (inactive)
same,GI50,MCF7,1.42 µM (inactive)
same,GI50,MDA-MB-231,1.68 µM (inactive)
same,GI50,MDA-MB-435,1.5 µM (inactive)
same,GI50,MOLT-4,1.53 µM (inactive)
same,GI50,Malme-3M,1.95 µM (inactive)
same,GI50,NCI-H226,1.75 µM (inactive)
same,GI50,NCI-H23,1.71 µM (inactive)
same,GI50,NCI-H460,2 µM (inactive)
same,GI50,NCI-H522,2 µM (inactive)
same,GI50,NCI/ADR-RES,> 100 µM (inactive)
same,GI50,OVCAR-3,1.37 µM (inactive)
same,GI50,OVCAR-4,1.46 µM (inactive)
same,GI50,OVCAR-5,1.7 µM (inactive)
same,GI50,OVCAR-8,2.12 µM (inactive)
same,GI50,PC-3,1.59 µM (inactive)
same,GI50,RPMI-8226,5.27 µM (inactive)
same,GI50,RXF 393,2.55 µM (inactive)
same,GI50,SF-268,1.85 µM (inactive)
same,GI50,SF-295,1.39 µM (inactive)
same,GI50,SF-539,1.77 µM (inactive)
same,GI50,SK-MEL-28,1.94 µM (inactive)
same,GI50,SK-MEL-2,1.76 µM (inactive)
same,GI50,SK-MEL-5,3.23 µM (inactive)
same,GI50,SK-OV-3,1.64 µM (inactive)
same,GI50,SN12C,1.77 µM (inactive)
same,GI50,SNB-19,1.38 µM (inactive)
same,GI50,SNB-75,1.8 µM (inactive)
same,GI50,SR,1.73 µM (inactive)
same,GI50,SW-620,0.706 µM (active)
same,GI50,T47D,1.74 µM (inactive)
same,GI50,TK-10,1.82 µM (inactive)
same,GI50,U-251,1.58 µM (inactive)
same,GI50,UACC-257,1.93 µM (inactive)
same,GI50,UACC-62,1.87 µM (inactive)
same,GI50,UO-31,2.34 µM (inactive)
CC(C)(C)C1CCC2c3c([nH]c4ccccc34)C3C(=O)N(c4cccc([N+](=O)[O-])c4)C(=O)C3C2C1 (stereo not drawn),GI50,786-0,17.4 µM (inactive)
same,GI50,A498,41.2 µM (inactive)
same,GI50,A549,39.5 µM (inactive)
same,GI50,ACHN,36.2 µM (inactive)
same,GI50,BT-549,17 µM (inactive)
same,GI50,CAKI-1,19.6 µM (inactive)
same,GI50,CCRF-CEM,> 100 µM (inactive)
same,GI50,COLO 205,21.2 µM (inactive)
same,GI50,DU-145,25.9 µM (inactive)
same,GI50,EKVX,22.4 µM (inactive)
same,GI50,HCC 2998,27.7 µM (inactive)
same,GI50,HCT-116,11.6 µM (inactive)
same,GI50,HCT-15,37.1 µM
same,GI50,HOP-62,29.6 µM (inactive)
same,GI50,HOP-92,61.5 µM (inactive)
same,GI50,HT-29,17.7 µM (inactive)
same,GI50,IGROV-1,19.8 µM (inactive)
same,GI50,K562,> 100 µM (inactive)
same,GI50,KM12,5.62 µM (inactive)
same,GI50,LOX IMVI,17.8 µM (inactive)
same,GI50,M14,37.6 µM (inactive)
same,GI50,MCF7,32.5 µM (inactive)
same,GI50,MDA-MB-231,30.5 µM (inactive)
same,GI50,MDA-MB-435,16.1 µM (inactive)
same,GI50,MDA-N,18.2 µM (inactive)
same,GI50,MOLT-4,6.84 µM (inactive)
same,GI50,Malme-3M,23.2 µM (inactive)
same,GI50,NCI-H226,25.4 µM (inactive)
same,GI50,NCI-H23,15.5 µM (inactive)
same,GI50,NCI-H460,13.6 µM (inactive)
same,GI50,NCI-H522,14.6 µM (inactive)
same,GI50,NCI/ADR-RES,27.1 µM (inactive)
same,GI50,OVCAR-3,35.6 µM (inactive)
same,GI50,OVCAR-4,25.5 µM (inactive)
same,GI50,OVCAR-5,52.2 µM (inactive)
same,GI50,OVCAR-8,25.7 µM (inactive)
same,GI50,PC-3,27 µM (inactive)
same,GI50,RXF 393,54 µM (inactive)
same,GI50,SF-268,21 µM (inactive)
same,GI50,SF-295,53.7 µM (inactive)
same,GI50,SF-539,49.9 µM (inactive)
same,GI50,SK-MEL-28,21 µM (inactive)
same,GI50,SK-MEL-2,24.5 µM (inactive)
same,GI50,SK-OV-3,> 100 µM (inactive)
same,GI50,SN12C,7 µM (inactive)
same,GI50,SNB-19,55.8 µM (inactive)
same,GI50,SNB-75,59.6 µM (inactive)
same,GI50,SR,18.2 µM (inactive)
same,GI50,SW-620,57.8 µM (inactive)
same,GI50,T47D,28.8 µM (inactive)
same,GI50,TK-10,38.5 µM (inactive)
same,GI50,U-251,> 100 µM (inactive)
same,GI50,UACC-257,22.5 µM (inactive)
same,GI50,UACC-62,23.4 µM (inactive)
same,GI50,UO-31,35.2 µM (inactive)
